From paper PMC8615111, “Phenolic Thiazoles with Antioxidant and Antiradical Activity. Synthesis, In Vitro Evaluation, Toxicity, Electrochemical Behavior, Quantum Studies and Antimicrobial Screening” (Antioxidants, 2021)
Read-outs that look alike come from different tables or passages of the source.

Columns and labels:
[1] = NO˙ radical scavenging assay (Griess reaction); assay type: biochemical; details: 100 µL of test solution 1 mg/mL in DMSO, 150 min, pH 7.4
Method: Scavenging of the NO˙ radical was performed according to some adapted protocols reported in the literature, based on the nitroprusside decomposition at physiological pH and colorimetric quantification of the resulted products using the Griess reaction.
Over 200 µL of 10 mM sodium nitroprusside, 100 µL of test solutions (1 mg/mL in DMSO), and 400 µL phosphate-buffered saline (PBS, pH = 7.4) were added. The mixture was then incubated at room temperature for 150 min on a rotating shaker (GFL Gesellschaft für Labortechnik, Burgwedel, Germany). After that, 1 mL of sulfanilic acid 0.33% in 20% acetic acid was added and after 5 min, 1 mL of naphthylethylenediamine […] 0.1% was added to all test tubes. After 30 min, the absorbance of the sample, given by the chromophore (azo dye) formed during the diazotization of nitrite ions resulting from decomposition of sodium nitroprusside with sulfanilic acid and coupled with naphthylethylenediamine, was measured at 546 nm. The NO˙ radical scavenging activity of the tested compounds was calculated using Equation (3):(3) NO˙ scavenging (%)=control absorbance−sample absorbance/control absorbance×100

[2] = Fe^2+ chelation assay; assay type: biochemical
Method: The protocol used for assessing Fe^2+ chelating capacity of the compounds was adapted from a report of Benzie and Strain and previously reported by our group. The iron(II) chelation ability of compounds was calculated using Equation (7):(7) iron chelation (%)=control absorbance−sample absorbance/control absorbance×100
The chelating potential for the ferrous ions of the new compounds was determined, based on their competition for Fe^2+ with ferrozine.

[3] = Cu^2+ chelation assay; assay type: biochemical
[4] = Cyclic voltammetry of the compounds on graphite-based SPE; assay type: physicochemical; details: CV, 0.1 M HClO4, graphite-based SPE
Method: The evaluated compounds’ stock solutions used were prepared at a concentration of 5 mM. To test their redox properties, dilutions of 0.5 mM and 2 mM were prepared in 0.1 M HClO4 electrolyte (pH = 1.2). Screen-printed electrodes (SPEs; Metrohm DropSens, Oviedo, Spain) (planar electrodes) with graphite and gold working electrodes were used. Cyclic voltammetry (CV) and differential pulse voltammetry (DPV) were the electrochemical methods applied. The experimental conditions for each test are mentioned near the corresponding data (Appendix A).
In Figure 2, the cyclic voltammograms (CVs) for each of the compounds considered in this study, compared individually with the voltammogram obtained in the electrolyte (0.1 M HClO4), are presented. Thus, the oxidation/reduction peaks corresponding to the electrochemical transformations suffered by each compound can be observed in the potential range considered, in an acidic environment (low pH). From Figure 3, where the voltammograms of all eight compounds were presented together, a similarity is observed between 8a and 8b, and among the other compounds, whereas 5a and 5b can be noted as having the highest oxidation signals.

[5] = test system: E. coli ATCC 25922; test: Antimicrobial activity, modified microdilution; assay type: cell-based; details: Escherichia coli, ATCC25922
Method: (§1) For evaluating the antimicrobial activity of the compounds, […] aerobic microbial strains were used: S. aureus ATCC 25923, S. pyogenes ATCC 19615, P. aeruginosa ATCC 27853, S. enterica ISM 83/37, S. typhimurium ATCC 14028, E. coli ATCC 8739, E. coli ATCC 25922, and C. albicans ATCC 102310 obtained from Food Biotechnology Laboratory, Life Sciences Institute, University of Agricultural Sciences, and Veterinary Medicine Cluj Napoca, where the experiment was performed. The antimicrobial activity of the compounds was determined using a modified microdilution technique, and the followed protocol was previously reported.
(§2) The antimicrobial activity of the final compounds, against seven aerobic microbial strains (S. aureus ATCC 25923, S. pyogenes ATCC 19615, P. aeruginosa ATCC 27853, S. enterica ISM 83/37, S. typhimurium ATCC 14028, E. coli ATCC 8739, E. coli ATCC 25922), and a fungal strain (C. albicans ATCC 102310), was determined using a modified microdilution technique.
(§3) The results of the antimicrobial activity evaluation of the compounds, in comparison to norfloxacin and chloramphenicol used as standard antibiotics and fluconazole used as reference antifungal, are depicted in Table 10.

[6] = test system: E. coli ATCC 8739; test: Antimicrobial activity, modified microdilution; assay type: cell-based; details: Escherichia coli, ATCC8739
Method: as §1, §2, §3

[7] = test system: P. aeruginosa ATCC 27853; test: Antimicrobial activity, modified microdilution; assay type: cell-based; details: Pseudomonas aeruginosa, ATCC27853
Method: as §1, §2, §3

[8] = test system: S. aureus ATCC 25923; test: Antimicrobial activity, modified microdilution; assay type: cell-based; details: Staphylococcus aureus, ATCC25923
Method: as §1, §2, §3

[9] = test system: S. enterica ISM 83/37; test: Antimicrobial activity, modified microdilution; assay type: cell-based; details: Salmonella enterica, ISM83/37
Method: as §1, §2, §3

[10] = test system: S. pyogenes ATCC 19615; test: Antimicrobial activity, modified microdilution; assay type: cell-based; details: Streptococcus pyogenes, ATCC19615
Method: as §1, §2, §3

[11] = test system: S. typhimurium ATCC 14028; test: Antimicrobial activity, modified microdilution; assay type: cell-based; details: Salmonella enterica
Method: as §1, §2, §3

[12] = ABTS˙^+ radical scavenging assay; assay type: biochemical; details: for IC50: ABTS˙^+ scavenging
Method: The assay was based on the decolorization of green (2,2′-azinobis-(3-ethylbenzothiazoline-6-sulfonic acid) ABTS˙^+ to ABTS, on the principle reported by Re et al. and was carried out according to our previously published research.
Later, 1950 µL of ABTS˙^+ reagent was added to all cuvettes and they were shaken for well over 10 min in the dark at room temperature. The absorbance of the resulted solutions found in cuvettes was determined spectrophotometrically at λ = 734 nm. The ABTS scavenging activity of the compounds was calculated using the following Equation (1):(1) ABTS scavenging (%)=control absorbance−sample absorbance/control absorbance×100

Row | Structure (SMILES) | % of NO˙ Scavenged [1] [%] | Chelation Capacity (%), ferrous ions ([2]; 150 µg/mL) [%] | Chelation Capacity (%), ferrous ions ([2]; 200 µg/mL) [%] | Chelation Capacity (%), cupric ions ([3]; 3.36 µg/mL) [%] | Chelation Capacity (%), cupric ions ([3]; 6.72 µg/mL) [%] | Chelation Capacity (%), cupric ions ([3]; 10.08 µg/mL) [%] | Chelation Capacity (%), cupric ions ([3]; 13.44 µg/mL) [%] | Chelation Capacity (%), cupric ions ([3]; 16.80 µg/mL) [%] | Eox (V) ([4]; 2nd oxidation peak) | Iox (μA) ([4]; 2nd oxidation peak) | Eox (V) ([4]; 3rd oxidation peak) | Iox (μA) ([4]; 3rd oxidation peak) | Ered (V) ([4]; 3rd reduction peak) | Ired (μA) ([4]; 3rd reduction peak) | MIC [5] [µg/mL] | MIC [6] [µg/mL] | MIC [7] [µg/mL] | MIC [8] [µg/mL] | MIC [9] [µg/mL] | MIC [10] [µg/mL] | other results
1 | C/C(=N\Nc1nc(C)cs1)c1ccc(O)cc1O [Compound 5a, Dihydroxy-Phenyl-Thiazol-Hydrazinium chloride] | 36.26 | 11.17 | 21.69 | 10.74 | 14.51 | 20.10 | 28.62 | 33.67 | 0.384 | 50.85 | 0.632 | 19.21 | 0.256 | −2.17 | > 100 | > 100 | 31.2 | > 100 | > 100 | > 100 | Ered (V) ([4]; 1st reduction peak): −0.075 V; Ired (μA) ([4]; 1st reduction peak): −6.62 μA; MIC [11]: > 100 µg/mL
2 | Cc1csc(N/N=C/c2ccc(O)cc2O)n1.Cl [Compound 5b, (E)-2-(2,4-dihydroxybenzylidene)-1-(4-methylthiazol-2-yl)hydrazin-1-ium chloride] | 35.63 | 18.42 | 31.33 | 11.58 | 15.60 | 22.76 | 28.99 | 34.10 | 0.425 | 69.35 | 0.632 | 5.87 | 0.286 | −2.86 |  |  |  |  | > 100 |  | % of ABTS˙^+ Scavenged ([12]; 0.5 µg/mL): 35.55%; % of ABTS˙^+ Scavenged ([12]; 0.75 µg/mL): 41.10%; % of ABTS˙^+ Scavenged ([12]; 1 µg/mL): 48.40%; % of ABTS˙^+ Scavenged ([12]; 1.5 µg/mL): 66.50%; % of ABTS˙^+ Scavenged ([12]; 2.5 µg/mL): 98.09%; IC50 [12]: 1.00 µg/mL; Chelation Capacity (%), ferrous ions ([2]; 50 µg/mL): 1.18%; Chelation Capacity (%), ferrous ions ([2]; 100 µg/mL): 8.95%; Ered (V) ([4]; 2nd reduction peak): 0.085 V; Ired (μA) ([4]; 2nd reduction peak): −0.68 μA; MIC ([5]; E. coli ATCC 25922, read-out: MIC): > 100 µg/mL; MIC ([6]; E. coli ATCC 8739, read-out: MIC): > 100 µg/mL; MIC ([7]; P. aeruginosa ATCC 27853, read-out: MIC): 31.2 µg/mL; MIC ([8]; S. aureus ATCC 25923, read-out: MIC): > 100 µg/mL; MIC ([10]; S. pyogenes ATCC 19615, read-out: MIC): > 100 µg/mL; MIC ([11]; S. typhimurium ATCC 14028, read-out: MIC): > 100 µg/mL
3 | Br.C/C(=N\Nc1nc(-c2ccccc2)cs1)c1ccc(O)cc1O [Compound 6a, (E)-2-(1-(2,4-dihydroxyphenyl)ethylidene)-1-(4-phenylthiazol-2-yl)hydrazin-1-ium bromide] | 20.58 | 14.50 | 25.03 | 6.33 | 10.30 | 13.65 | 15.90 | 18.67 | 0.418 | 22.48 | 0.621 | 15.03 | 0.379 | −1.19 | > 100 | > 100 | 31.2 | > 100 | > 100 | > 100 | % of ABTS˙^+ Scavenged ([12]; 0.5 µg/mL): 4.75%; % of ABTS˙^+ Scavenged ([12]; 0.75 µg/mL): 7.92%; % of ABTS˙^+ Scavenged ([12]; 1 µg/mL): 12.68%; % of ABTS˙^+ Scavenged ([12]; 1.5 µg/mL): 22.21%; % of ABTS˙^+ Scavenged ([12]; 2.5 µg/mL): 36.01%; IC50 [12]: 3.34 µg/mL; Chelation Capacity (%), ferrous ions ([2]; 50 µg/mL): 0.07%; Chelation Capacity (%), ferrous ions ([2]; 100 µg/mL): 7.14%; Eox (V) ([4]; 1st oxidation peak): 0.298 V; Iox (μA) ([4]; 1st oxidation peak): 10.73 μA; Ered (V) ([4]; 2nd reduction peak): 0.181 V; Ired (μA) ([4]; 2nd reduction peak): −6.84 μA; MIC [11]: > 100 µg/mL
4 | Br.Oc1ccc(/C=N/Nc2nc(-c3ccccc3)cs2)c(O)c1 [Compound 6b, (E)-2-(2,4-dihydroxybenzylidene)-1-(4-phenylthiazol-2-yl)hydrazin-1-ium bromide] | 28.35 | 13.39 | 22.27 | 3.84 | 6.80 | 10.44 | 14.34 | 17.07 | 0.467 | 44.99 |  |  | 0.401 | −5.91 | > 100 | > 100 | > 100 | > 100 | > 100 | > 100 | % of ABTS˙^+ Scavenged ([12]; 0.5 µg/mL): 11.67%; % of ABTS˙^+ Scavenged ([12]; 0.75 µg/mL): 17.45%; % of ABTS˙^+ Scavenged ([12]; 1 µg/mL): 19.83%; % of ABTS˙^+ Scavenged ([12]; 1.5 µg/mL): 28.56%; % of ABTS˙^+ Scavenged ([12]; 2.5 µg/mL): 42.53%; IC50 [12]: 2.97 µg/mL; Chelation Capacity (%), ferrous ions ([2]; 50 µg/mL): 0.07%; Chelation Capacity (%), ferrous ions ([2]; 100 µg/mL): 4.84%; Eox (V) ([4]; 1st oxidation peak): 0.296 V; Iox (μA) ([4]; 1st oxidation peak): 5.28 μA; Ered (V) ([4]; 1st reduction peak): −0.08 V; Ired (μA) ([4]; 1st reduction peak): −2.22 μA; Ered (V) ([4]; 2nd reduction peak): 0.070 V; Ired (μA) ([4]; 2nd reduction peak): −1.49 μA; MIC [11]: > 100 µg/mL
